Columns and labels:
BV-2 microglial cells = assay: Cell-based screen for inhibition of LPS-stimulated NO release (Griess assay); set-up: species or system murine; details: LPS-stimulated BV-2 cells, 24 hr, nitrite in conditioned media
Method: FIG. 1. Cell-based screen for inhibition of LPS-stimulated NO release. […] Inhibition is expressed as percent control, where the control is the NO accumulation from cells stimulated with LPS alone.
The rationale for using BV-2 cells in high throughput screening was the paucity of well-characterized human microglial cell lines, and the relevant activation responses and signaling pathways reflect those seen in human and rodent primary microglial cultures. Compounds were tested for their effects on NO accumulation in conditioned media of LPS-stimulated BV-2 cells by measurement of nitrite production by the Griess assay as a read-out for iNOS activity, as described previously. Stock solutions of compounds were prepared in dimethylsulfoxide (DMSO) or in water. When stock solutions were prepared in DMSO, control wells contained the same final concentration of DMSO as the compound-containing wells. […] Solutions of compounds for cell treatments were diluted to a 10× final concentration by dilution of stock solutions in αMEM media. The commercially available drugs tested were: compound 5 (KN93 from Alexis); compound 6 (pyrrolidinedithiocarbamate or PDTC from Sigma), compound 7 (SB203580 from Alexis Corporation), compound 8 (PD98059 from Alexis Corporation), and compound 9 (UO126 from Cell Signaling). […] Respectively, Western blots of cell lysates were done with the following antibodies: monoclonal anti-iNOS (1:1000 dilution, Transduction Labs); polyclonal anti-rat IL-1β (1:1000 dilution, R&D Systems, Inc.); monoclonal anti-glial fibrillary acidic protein (GFAP) (1:[…] dilution, Sigma); polyclonal anti-rat alioE (1:15,000 dilution) prepared as described; polyclonal anti-COX-2 (1:500 dilution) and monoclonal anti-phosphoATF2 (1:1000 dilution) from Santa Cruz Biotechnology, polyclonal anti-phosphoCREB (1:1000 dilution), and polyclonal anti-phosphop38 MAPK (1:1000 dilution). Reconstituted enzyme assays were done as described s. The sources of protein kinases were: bovine heart PKA from Promega, rat brain PKC from Calbiochem, rat CaMKII from New England Biolabs, chicken gizzard MLCK prepared as described, and a p38 MAP kinase kit containing recombinant Xenopus p38-MAPK and its human substrate from Upstate Biotechnology. The catalytic domains of these protein kinases retain a high level of amino acid sequence identity across mammalian species, consistent with the lack of documented major differences across species for the in vitro catalytic activity of a given kinase.
FIG. 4. Cell-based screen for functional effects of synthetic compounds on LPS-stimulated NO release from BV-2 cells. BV-2 cells were incubated for 24 hr with LPS (500 ng/ml) in the presence of increasing concentrations of: A) MW01-070C; B) MW01-026Z; C) MW01-118Z; D) MW01-119Z; E) MW01-051Z; F) MW01-160Z; G) MW01-196A; H) MW01-024Z; I) SB203580; J) PDTC; K) U0126; L) PD98059. The nitrite levels in conditioned media were determined. Inhibition is expressed as percentage of control values, where the control is the nitrite level in cells stimulated with LPS alone.
Compounds were tested for their effects on NO production by LPS-stimulated BV-2 cells as previously described [Mirzoeva, S., Koppal, T., Petrova, T. V., Lukas, T. J., Watterson, D. M., and Van Eldik, L. J. (1999) Brain Res. 844, 126-134]. The levels of nitrite, a stable NO metabolite, in conditioned media were determined by the Griess assay as previously described [Hu, J., Castets, F., Guevara, J. L., and Van Eldik, L. J. (1996) J. Biol. Chem. 271, 2543-2547]. Stock solutions of compounds were prepared in DMSO or in water. When stock solutions were prepared in DMSO, control wells contained the same final concentration of DMSO as the compound-containing wells. Solutions of compounds for cell treatments were diluted to a 10× final concentration by dilution of stock solutions of drugs in αMEM media.

[1] = target: T1, myosin light chain kinase (MLCK) (Gallus gallus, UniProt P11799); assay: Reconstituted enzyme assay, MLCK; format: biochemical, chicken; details: Table 6; read-out: Inhibition MLCK
T1 construct: chicken gizzard MLCK prepared as described; from tissue; host or cells: chicken gizzard
T1 sequence (P11799 935-1906): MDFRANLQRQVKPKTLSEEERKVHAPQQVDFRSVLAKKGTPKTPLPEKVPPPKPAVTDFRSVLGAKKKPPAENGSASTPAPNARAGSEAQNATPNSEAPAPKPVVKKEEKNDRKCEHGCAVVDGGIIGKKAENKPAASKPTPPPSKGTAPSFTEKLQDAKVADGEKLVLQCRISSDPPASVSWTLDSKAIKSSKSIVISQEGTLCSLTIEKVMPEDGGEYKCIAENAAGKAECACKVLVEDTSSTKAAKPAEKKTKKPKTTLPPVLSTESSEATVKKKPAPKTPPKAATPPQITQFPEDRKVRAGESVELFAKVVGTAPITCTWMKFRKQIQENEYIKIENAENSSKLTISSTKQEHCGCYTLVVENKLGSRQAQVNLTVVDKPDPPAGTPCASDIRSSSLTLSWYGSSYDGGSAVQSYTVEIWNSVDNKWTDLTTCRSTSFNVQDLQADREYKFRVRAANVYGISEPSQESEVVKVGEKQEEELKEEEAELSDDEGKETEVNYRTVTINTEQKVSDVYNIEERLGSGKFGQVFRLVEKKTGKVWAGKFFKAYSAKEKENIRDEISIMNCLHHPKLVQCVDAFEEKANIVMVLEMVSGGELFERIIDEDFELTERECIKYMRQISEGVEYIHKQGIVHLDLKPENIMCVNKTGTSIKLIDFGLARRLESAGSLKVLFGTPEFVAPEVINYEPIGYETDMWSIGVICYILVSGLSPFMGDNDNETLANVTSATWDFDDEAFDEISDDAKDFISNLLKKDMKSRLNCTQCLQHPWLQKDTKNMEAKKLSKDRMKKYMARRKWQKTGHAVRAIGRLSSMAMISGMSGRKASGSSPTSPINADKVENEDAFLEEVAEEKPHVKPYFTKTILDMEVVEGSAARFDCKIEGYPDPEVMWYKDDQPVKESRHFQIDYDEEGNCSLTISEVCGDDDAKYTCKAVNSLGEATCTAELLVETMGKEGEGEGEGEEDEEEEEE
Method: [table] […] The rationale for using BV-2 cells in high throughput screening was the paucity of well-characterized human microglial cell lines, and the relevant activation responses and signaling pathways reflect those seen in human and rodent primary microglial cultures. Compounds were tested for their effects on NO accumulation in conditioned media of LPS-stimulated BV-2 cells by measurement of nitrite production by the Griess assay as a read-out for iNOS activity, as described previously. Stock solutions of compounds were prepared in dimethylsulfoxide (DMSO) or in water. When stock solutions were prepared in DMSO, control wells contained the same final concentration of DMSO as the compound-containing wells. […] Solutions of compounds for cell treatments were diluted to a 10× final concentration by dilution of stock solutions in αMEM media. […] Reconstituted enzyme assays were done as described s. The sources of protein kinases were: bovine heart PKA from Promega, rat brain PKC from Calbiochem, rat CaMKII from New England Biolabs, chicken gizzard MLCK prepared as described, and a p38 MAP kinase kit containing recombinant Xenopus p38-MAPK and its human substrate from Upstate Biotechnology. The catalytic domains of these protein kinases retain a high level of amino acid sequence identity across mammalian species, consistent with the lack of documented major differences across species for the in vitro catalytic activity of a given kinase.

[2] = target: death associated protein kinase (DAPK) (Homo sapiens, UniProt P53355); assay: Enzyme assay, DAPK; format: biochemical; details: Table 6; read-out: Inhibition DAPK
Chain of death associated protein kinase (DAPK) (P53355 whole entry, species assumed): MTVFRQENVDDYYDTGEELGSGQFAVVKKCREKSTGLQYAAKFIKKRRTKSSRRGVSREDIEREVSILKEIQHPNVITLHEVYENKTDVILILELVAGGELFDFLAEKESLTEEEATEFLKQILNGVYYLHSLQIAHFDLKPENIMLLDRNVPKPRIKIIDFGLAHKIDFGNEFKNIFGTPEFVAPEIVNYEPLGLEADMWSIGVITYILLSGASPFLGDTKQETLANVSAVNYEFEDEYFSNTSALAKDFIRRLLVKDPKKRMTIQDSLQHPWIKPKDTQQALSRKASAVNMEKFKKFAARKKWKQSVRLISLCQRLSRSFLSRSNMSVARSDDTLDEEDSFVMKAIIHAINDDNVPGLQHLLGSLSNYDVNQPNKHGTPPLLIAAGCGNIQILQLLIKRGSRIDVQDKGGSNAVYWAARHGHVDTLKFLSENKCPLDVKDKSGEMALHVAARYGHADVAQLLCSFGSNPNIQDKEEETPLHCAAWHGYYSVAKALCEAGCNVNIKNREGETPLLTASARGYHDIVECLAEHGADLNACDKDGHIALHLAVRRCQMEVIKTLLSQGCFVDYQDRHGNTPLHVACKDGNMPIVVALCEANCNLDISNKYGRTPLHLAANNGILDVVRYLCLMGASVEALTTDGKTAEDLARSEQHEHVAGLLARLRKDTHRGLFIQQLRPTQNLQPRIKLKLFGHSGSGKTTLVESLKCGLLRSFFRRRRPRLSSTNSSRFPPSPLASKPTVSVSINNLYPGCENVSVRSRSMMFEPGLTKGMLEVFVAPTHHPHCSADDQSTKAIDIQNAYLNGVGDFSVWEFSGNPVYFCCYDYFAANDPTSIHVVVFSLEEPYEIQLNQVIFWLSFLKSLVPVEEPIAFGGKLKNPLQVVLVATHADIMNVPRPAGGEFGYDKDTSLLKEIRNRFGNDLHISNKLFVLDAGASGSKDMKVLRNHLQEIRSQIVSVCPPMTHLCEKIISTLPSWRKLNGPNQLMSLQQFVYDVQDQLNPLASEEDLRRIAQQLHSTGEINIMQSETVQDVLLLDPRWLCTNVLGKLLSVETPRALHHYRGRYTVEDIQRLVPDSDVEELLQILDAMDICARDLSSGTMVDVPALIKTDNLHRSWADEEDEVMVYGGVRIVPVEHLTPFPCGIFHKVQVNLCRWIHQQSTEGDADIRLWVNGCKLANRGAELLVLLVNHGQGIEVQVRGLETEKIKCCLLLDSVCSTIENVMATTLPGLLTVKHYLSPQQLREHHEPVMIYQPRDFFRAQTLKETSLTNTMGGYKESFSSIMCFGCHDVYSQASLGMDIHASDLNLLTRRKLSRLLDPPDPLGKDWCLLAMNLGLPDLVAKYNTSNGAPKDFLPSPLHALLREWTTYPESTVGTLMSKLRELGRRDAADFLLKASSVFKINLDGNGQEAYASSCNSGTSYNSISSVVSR
Method: Therefore, compound MW01-026Z was selected as a starting point for variations on component A (Table 6). […] However, none of the A variations appeared to improve the activity and selectivity profile of CompoundMW01-026Z. (For purposes of illustration, only, component G was maintained throughout as an acyl moiety, while component R2 was varied as shown. All such compositions are available using the synthetic techniques described herein. Enzyme assays were conducted per procedures described elsewhere herein.) A more comprehensive structure activity relationship is summarized in Table 7, below.
With reference to the compositions of Table 3 and the enzyme assay techniques described elsewhere herein, Table 7 provides structural activity relationships observed, in accordance with this invention.

| Compound | inhibition of NO accumulation by activated glia (BV-2 microglial cells) | IC50 [1] | IC50 [2] |
| --- | --- | --- | --- |
| C[S+]([O-])c1ccc(-c2nc(-c3ccncc3)c(-c3ccc(F)cc3)[nH]2)cc1 (centres unmarked) [Compound 7, SB203580, reference compound] | less effective | – | – |
| COc1cccc(-c2cc(=O)c3ccccc3o2)c1N [Compound 8, PD98059, reference compound] | less effective | – | – |
| N#CC(=C(/N)Sc1ccccc1N)/C(C#N)=C(\N)Sc1ccccc1N [Compound 9, U0126, reference compound] | less effective | – | – |
| O=C(CCCCCCCCCCN1CCN(c2ncccn2)CC1)N1CCN(c2ncccn2)CC1 [MW01-024Z] | does not have any greater cellular activity than commercially available drugs and inhibitors | – | – |
| O=C(CCCCCCCCCNc1ccc(-c2ccccc2)nn1)Nc1ccc(-c2ccccc2)nn1 [MW01-038B] | – | > 100 µM | > 100 µM |
| N=c1cc2c(nn1CCCCCCCC(=O)N1CCN(c3ncccn3)CC1)-c1ccccc1CC2 [MW01-051Z] | significant NO inhibition activity | – | – |
| N=c1ccc(-c2ccccc2)nn1CCCCCCCC(=O)Nc1ccc(-c2ccccc2)nn1 [MW01-086B] | – | > 100 µM | > 100 µM |
| N=c1cc2c(nn1CCCCCCCCCCC(=O)Nc1nnc(-c3ccccc3)c3ccccc13)-c1ccccc1CC2 [MW01-119Z] | better efficacy than established anti-inflammatory compounds like SB203580 | – | – |
| N=c1cc2c(nn1CCCCC(=O)N1CCN(c3ncccn3)CC1)-c1ccccc1CC2 [MW01-160Z] | no more active than inhibitors of the NFκB pathway (PDTC) | – | – |

From patent publication US7888357B2, “Anti-inflammatory and protein kinase inhibitor compositions and related methods for downregulation of detrimental cellular responses and inhibition of cell death” (Northwestern University, priority 2001, dated 2011)
